Patent US20100008874A1, “SUBSTITUTED PYRIMIDINES, PROCESS FOR THEIR PRODUCTION AND THEIR USE AS EFFECTIVE ABSORBENTS OF UV IRRADIATION” (YISSUM RESEARCH DEVELOPMENT COMPANY, priority 2006, published 2010)
Where two headings read alike, the source gives them in different places. Marks after values point to notes of the source that are not given here. Blank lines part the entries; values can stand above or below the compound they belong to.

Legend:
[1] = UV absorption spectrum (spectral properties); type: physicochemical; details: footnote b: this work
[2] = Autoxidation rate in air-saturated phosphate buffer, followed spectrophotometrically; type: physicochemical; details: air saturated 0.05M phosphate buffer pH 7.0, 1 mM EDTA, 25° C., [Pyrimidine] = 2.4 × 10^−5 M
Experimental: The autoxidation rate was measured in air-saturated buffer phosphate solutions 0.05 M at pH 7 and 25° C. The solutions contained 1 mM EDTA to minimize catalysis of the oxidation by trace metallic cations. The rate of autoxidation was measured spectrophotometrically by following the decrease of the UV absorbance of the pyrimidines at their respective λ max (Table 1).
This is probably the reason why there was no transient appearance of an absorption maximum around 240-255 nm which is assumed to be due to the intermediacy of oxidized pyrimidine B (Scheme 1), and was found in the autoxidation of isouramil, divicine and related systems. The decrease in the absorbance of 8a-c, followed a reasonably pseudo first order reaction in the pyrimidine concentration (the dissolved oxygen concentration was at least 13 times higher). However, it was found (Winterbourn, C. C.; Cowden, W. B.; Sutton, H. Biochem. Pharmacol. 1989, 38, 611-618) that the reaction mechanism is complex and involves radical intermediates and chain reactions and that the dependency on the pyrimidine concentration is far from simple. Therefore, in accordance with the present invention a different approach was adapted that uses the measured initial reaction rates for checking the quantitative dependency of the oxidation rate on the electron releasing power of the substituent in the C2 position. Table 1 also contains the initial rates for the reactions of isouramil and divicine (8d and 8e) calculated from Winterbourn, C. C.; Cowden, W. B.; Sutton, H. Biochem. Pharmacol. 1989, 38, 611-618; (aerated 0.05M phosphate buffer, pH 7, 23° C., 50 nM DTPA and similar to our pyrimidine concentrations) using ΔH of 60.2 kJ/mole (Chevion et al.^5a).

[3] = footnote d: reference; cited from earlier work
[4] = calculated from literature (aerated 0.05M phosphate buffer, pH 7, 23° C., 50 nM DTPA) using ΔH of 60.2 kJ/mole; cited from earlier work
[5] = system: murine erythroleukemic cells; details: cited from earlier work
[6] = system: tumor necrosis factor (TNF); details: in-vitro and in-vivo; cited from earlier work

melting point: 149 to 151 °C
SMILES: Cc1ncc(OC2CCCCO2)c(=O)[nH]1 (centres unmarked) [5a, 2-Methyl-5-(tetrahydro-2H-pyran-2-yloxy)pyrimidin-4(3H)-one]

melting point: > 300 °C
SMILES: O=c1[nH]c(S)ncc1OC1CCCCO1 (centres unmarked) [5c, 2-Mercapto-5-(tetrahydro-pyran-2-yloxy)-3H-pyrimidin-4-one]

melting point: > 300 °C
SMILES: Cc1ncc(O)c(=O)[nH]1 [6a, 5-Hydroxy-2-methylpyrimidin-4(3H)-one]

melting point: > 300 °C
SMILES: O=c1[nH]c(S)ncc1O [6c, 5-Hydroxy-2-mercapto-3H-pyrimidin-4-one]

melting point: 243 to 245 °C
SMILES: Cc1nc(N=Nc2ccccc2)c(O)c(=O)[nH]1 [7a, 5-Hydroxy-2-methyl-6-phenylazo-3H-pyrimidin-4-one]

melting point: 244 to 245 °C
SMILES: O=c1[nH]cnc(N=Nc2ccccc2)c1O [7b, 5-Hydroxy-6-phenylazo-3H-pyrimidine-4-one]

melting point: 213 to 215 °C
SMILES: CSc1nc(N=Nc2ccccc2)c(O)c(=O)[nH]1 [7c, 5-Hydroxy-2-methylsulfanyl-6-phenylazo-3H-pyrimidin-4-one]

ε at λmax [1]: 16200
λmax [1]: 275 nm
melting point: > 300 °C
SMILES: Cc1nc(N)c(O)c(=O)[nH]1 [CH3, 6-Amino-5-hydroxy-2-methylpyrimidin-4(3H)-one]
Initial rate (autoxidation) [2]: 0.0015^c μM/sec

ε at λmax [1]: 13000
λmax [1]: 274 nm
melting point: > 300 °C
SMILES: Nc1nc[nH]c(=O)c1O [H, 6-Amino-5-hydroxypyrimidin-4(3H)-one]
Initial rate (autoxidation) [2]: 0.00087^c μM/sec

SMILES: Nc1nc(N)c(O)c(O)n1 [NH2, 2,6-diamino-5-hydroxypyrimidin-4-one]
ε at λmax [3]: 9800
λmax [3]: 285 nm
Initial rate (autoxidation) [4]: 0.061^e μM/sec
cytotoxicity in combination with carboplatin [5]: synergistic cytotoxicity
effect on lipopolysaccharide-induced release of TNF [6]: enhances

SMILES: Nc1nc(O)[nH]c(=O)c1O [OH, 6-amino-2,5-dihydroxypyrimidin-4-one]
ε at λmax [3]: 14100
λmax [3]: 280 nm
Initial rate (autoxidation) [4]: 0.067^e μM/sec

ε at λmax [1]: 10800
λmax [1]: 286 nm
SMILES: CSc1nc(N)c(O)c(=O)[nH]1 [SCH3, 6-Amino-5-hydroxy-2-(methylthio)pyrimidin-4-(3H)-one]
Initial rate (autoxidation) [2]: 0.0097^c μM/sec
